Assay results reported in patent publication US5994334A, “Androgen synthesis inhibitors” (priority 1997, dated 1999).
“Also recorded” adds a separate entry of the source. Like-named read-outs stand apart in the source and are kept apart here.

Experiments:
[1] = biological target: T1, Human Prostatic 5α-Reductase (Homo sapiens, UniProt P31213); assay: Inhibition of human prostatic 5α-reductase (prostatic microsomes, [3H]testosterone); conditions: for inhibition at 0.01 µM: read-out: % Inhibition of 5α-reductase, [I] 10 nM; for inhibition at 0.1 µM: read-out: % Inhibition of 5α-reductase, [I] 100 nM
T1 sequence (P31213 1-254): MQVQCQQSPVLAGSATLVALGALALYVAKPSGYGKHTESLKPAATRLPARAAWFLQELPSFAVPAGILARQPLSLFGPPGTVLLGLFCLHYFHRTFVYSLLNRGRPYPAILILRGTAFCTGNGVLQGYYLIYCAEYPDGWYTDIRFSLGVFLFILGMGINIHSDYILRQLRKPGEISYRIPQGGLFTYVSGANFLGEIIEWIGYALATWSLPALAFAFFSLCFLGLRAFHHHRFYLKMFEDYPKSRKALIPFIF
Method: The 5α-reductase assay is performed by incubating human prostatic microsomes (approx. 0.6 mg protein in 0.5 ml phosphate buffer) with [7-^3 H]testosterone (10 mM. 6×10^5 dpm) with a NADPH generating system (NADP 0.65 mM; glucose-6-phosphate 7.1 mM; glucose-6-phosphate dehydrogenase 2.5 IU in 100 μl phosphate buffer) and candidate inhibitors at concentrations of 10 nM and 100 nM under oxygen for 30 min at 37° C. […] The steroids are extracted with ether and separated by chromatography on TLC (chloroform:ether 80:20). […] The steroids are scraped from the plate and radioactivity measured.

[2] = biological target: T2, Human Testicular C17,20-lyase (Homo sapiens, UniProt P05093); assay: Inhibition of human testicular C17,20-lyase (pregnenolone substrate, testicular microsomes); format: biochemical
T2 construct: incubating human testicular microsomes; from tissue; host or cells: human testis, microsomes
T2 sequence (P05093 1-508): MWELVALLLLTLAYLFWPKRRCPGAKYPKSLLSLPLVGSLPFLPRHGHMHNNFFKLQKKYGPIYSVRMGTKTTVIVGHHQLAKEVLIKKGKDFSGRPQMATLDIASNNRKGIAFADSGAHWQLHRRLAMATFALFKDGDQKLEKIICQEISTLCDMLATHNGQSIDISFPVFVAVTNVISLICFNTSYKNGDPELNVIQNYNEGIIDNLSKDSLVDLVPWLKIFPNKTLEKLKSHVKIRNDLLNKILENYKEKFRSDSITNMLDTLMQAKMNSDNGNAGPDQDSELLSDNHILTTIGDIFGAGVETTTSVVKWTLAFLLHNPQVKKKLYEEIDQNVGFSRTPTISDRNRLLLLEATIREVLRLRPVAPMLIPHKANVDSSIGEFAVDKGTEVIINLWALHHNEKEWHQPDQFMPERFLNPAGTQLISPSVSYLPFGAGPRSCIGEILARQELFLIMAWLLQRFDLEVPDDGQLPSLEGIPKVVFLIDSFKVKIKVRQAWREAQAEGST
Method: (§1) The conversion of radiolabeled pregnenolone to 17α-hydroxypregnenolone and DHEA by 17α-hydroxylase/C17,20 -lyase was measured by incubating human testicular microsomes with different concentration of test compounds. Reverse phase HPLC was used to separate and accurately quantify the amount of substrate and metabolites. The 17α-hydroxylase and C17,20 -lyase activities were calculated separately. The activity of 17α-hydroxylase was calculated from the conversion of pregnenolone to 17α-hydroxypregnenolone and DHEA and the activity of C17,20 -lyase was based on the conversion of pregnenolone to DHEA. Although 17α-hydroxypregnenolone is the substrate converted to DHEA by C17,20 -lyase, it has been reported that this 17α-hydroxy intermediate is not released from the enzyme binding site during conversion (Nakajin et al., 1981a,b). Also, there are species differences in substrate requirements. Pregnenolone is the natural substrate rather than progesterone for human testicular 17α-hydroxylase and C17,20 -lyase. Therefore, pregnenolone was used as substrate for measuring the activity of this enzyme complex.

[3] = biological target: T3, human 17α-hydroxylase/C17,20-lyase (Homo sapiens, UniProt P05093); assay: Inhibition of human testicular 17α-hydroxylase/C17,20-lyase (enzyme complex as a whole); format: biochemical; conditions: for times more potent than ketoconazole: vs ketoconazole
T3 construct: incubating human testicular microsomes; from tissue; host or cells: human testis, microsomes
T3 sequence (P05093 1-508): T2 sequence (P05093 1-508)
Method: as §1

[4] = biological target: T4, Human Testicular 17α-Hydroxylase (Homo sapiens, UniProt P05093); assay: Inhibition of human testicular 17α-hydroxylase (pregnenolone substrate, testicular microsomes); format: biochemical
T4 construct: incubating human testicular microsomes; from tissue; host or cells: human testis, microsomes
T4 sequence (P05093 1-508): T2 sequence (P05093 1-508)
Method: as §1

[5] = Table 1, NI = no inhibition, CI = complete inhibition, read-out: IC50 C17,20 lyase
[6] = Table 1, NI = no inhibition, read-out: IC50 17α-OHase
[7] = IC50 5α-reductase, Table 3, NI = no inhibition

For `C[C@@H](O)C1=CC[C@H]2[C@@H]3CC=C4C[C@@H](O)CC[C@]4(C)[C@H]3CC[C@]12C` [Compound L-8], the inhibition at 0.01 µM [1] was 37.1%, the inhibition at 0.1 µM ([2]; read-out: % Inhibition C17,20-lyase, [I] = 100 nM) was 66.2% and the inhibition at 0.4 µM ([2]; read-out: % Inhibition C17,20-lyase, [I] = 400 nM) was 83.3%. For the same compound, the IC50 ([3]; read-out: IC50 17α-hydroxylase/lyase (single entry), one value for 17α-hydroxylase/lyase, NI = no inhibition) was 100 nM and the inhibition at 0.4 µM ([4]; read-out: % Inhibition 17α-hydroxylase, [I] = 400 nM) was 82.7%.
For `CN(C=O)[C@H]1CC[C@H]2[C@@H]3CCC4=CC(=O)CC[C@]4(C)[C@H]3CC[C@]12C` [Compound I-40], the IC50 ([1]; IC50 5α-reductase, Table 2) was 150 nM, the IC50 [2, 5] was 680 nM and the “fold lower inhibition than I-16” value ([3]; vs I-16) was “approximately 4 fold”. It also gave an IC50 [4, 6] of 760 nM.
With `CC(=NO)[C@H]1CC[C@H]2[C@@H]3CCC4=CC(=NO)CC[C@]4(C)[C@H]3CC[C@]12C` [Compound I-42] the “inhibition of 5α-reductase (in words)” value ([1]; NI = no inhibition) was “decreased activity”, the IC50 ([1]; read-out: IC50 5α-reductase, Table 2) was 2060 nM and the IC50 [2, 5] was 220 nM. For the same compound, the “inhibition of 17α-hydroxylase/C17,20-lyase (in words)” value ([3]; NI = no inhibition) was “decreased activity” and the IC50 [4, 6] was 210 nM.
With `C[C@]12CC[C@H]3[C@@H](CC=C4C[C@@H](O)CC[C@@]43C)[C@@H]1CC[C@@H]2[C@@]1(C)CO1` [Compound I-8] the inhibition at 0.01 µM [1] was 11.8%, the inhibition at 0.1 µM [1] was 16.3% and the IC50 [2, 5] was 140 nM. The “inhibition of 17α-hydroxylase/C17,20-lyase (in words)” value ([3]; NI = no inhibition) was “significant inhibition” and the IC50 [4, 6] was 110 nM.
`CC(=O)C1=CC[C@H]2[C@@H]3CCC4=CC(=O)CC[C@]4(C)[C@H]3CC[C@]12C` [Compound L-13, 16-dehydroprogesterone] gave an IC50 ([1]; IC50 5α-reductase) of 22 nM, an IC50 ([1]; IC50 5α-reductase, Table 2) of 22 nM and an IC50 [1, 7] of 21.8 nM. For the same compound, the “inhibition of 5α-reductase (in words)” value ([1]; NI = no inhibition) was “potent inhibition of 5α-reductase; also recorded: almost equipotent with finasteride”, the inhibition at 0.1 µM [1] was 87.8% and the inhibition at 0.4 µM ([1]; read-out: % Inhibition of 5α-reductase, [I] 400 nM) was 96.4%. It also gave an IC50 ([2]; IC50 C17,20-lyase) of 24 nM, an IC50 ([2]; IC50 C17,20 lyase) of 24 nM and an IC50 ([2]; IC50 lyase) of 23.7 nM. The “inhibition of 17α-hydroxylase/C17,20-lyase (in words)” value ([3]; NI = no inhibition) was “potent inhibitors of both enzymes”, the “times more potent than ketoconazole” value [3] was 10-50 times and the IC50 ([4]; IC50 17α-OHase) was 73 nM. For the same compound, the IC50 ([4]; IC50 17α-hydroxylase) was 72.7 nM and the IC50 ([4]; IC50 17α-hydroxylase (text)) was 73 nM.
In the case of `C[C@]12CCC(=O)C=C1CC[C@@H]1[C@@H]2CC[C@]2(C)C(c3c[nH]cn3)=CC[C@@H]12` [Compound L-6, 17β-(4'-imidazolyl)-androsta-4,16-dien-3-one], the IC50 ([1]; IC50 5α-reductase) is reported as 522 nM, the IC50 ([1]; IC50 5α-reductase, Table 2) is reported as 522 nM and the IC50 [1, 7] is reported as 522 nM. For the same compound, the “inhibition of 5α-reductase (in words)” value ([1]; NI = no inhibition) was “potent inhibitors; also recorded: potent inhibition of 5α-reductase”, the inhibition at 0.1 µM [1] was 25.2% and the IC50 ([2]; second figure of pair, read-out: IC50 C17,20-lyase) was 2 nM. For the same compound, the “inhibition of 17α-hydroxylase/C17,20-lyase (in words)” value ([3]; NI = no inhibition) was “potent inhibitors”, the “times more potent than ketoconazole” value [3] was 10-50 times and the IC50 [4, 6] was 16 nM. It also gave an IC50 ([4]; Table 3, first figure of 17α-hydroxylase/lyase pair, read-out: IC50 17α-hydroxylase) of 15.6 nM and an IC50 ([4]; first figure of pair, read-out: IC50 17α-hydroxylase) of 16 nM.
In the case of `C[C@@H](O)[C@H]1CC[C@H]2[C@@H]3CC=C4C[C@@H](O)CC[C@]4(C)[C@H]3CC[C@]12C` [Compound I-20], the “inhibition of 5α-reductase (in words)” value ([1]; NI = no inhibition) is reported as “neither showed activity against 5α-reductase”, the IC50 ([2]; IC50 C17,20 lyase) is reported as 190 nM and the “inhibition of 17α-hydroxylase/C17,20-lyase (in words)” value ([3]; NI = no inhibition) is reported as “potent inhibition”. For the same compound, the IC50 ([4]; IC50 17α-OHase) was 180 nM.
